# Target: T1, AHR (Mus musculus, UniProt P30561)
# T1 construct: endogenous in cells; host or cells: Hepa1-6 / Hepa1.6 (murine hepatoma); DRE-luciferase reporter transfected in A3, no transfection in A2
# Assay: DRE-Luciferase Reporter Assay, Hepa1.6, agonist
# Type: cell-based, murine
# Settings: DRE-Luc Hepa1.6 - Agonist: Average EC50 (μM), Hepa1.6 cells, agonist mode, Table 3
# Protocol: (§1) AHR binds to Dioxin Responsive Elements (DRE) upstream of genes that it activates. One measure of AHR activity is activation of a reporter gene, such as luciferase, downstream of one or multiple DRE elements. Luciferase activity will reflect activation and inhibition of AHR in the cells expressing this reporter.
# (§2) Murine Hepa1-6 or Hepa-1c1c7 or other murine cell line with a DRE-luciferase reporter either stably or transiently transfected are plated in media in plates (96-well, 384-well or other plates) and incubated overnight at 37 C in a CO2 incubator. Likewise, human HepG2 or other human cell line with a DRE-luciferase reporter either stably or transiently transfected are plated in media in plates (96-well, 384-well or other plates) and incubated overnight at 37 C in a CO2 incubator.
# (§3) The next day, an AHR agonist compound is added. Cells are incubated for 6, 16 or 24 hours or another time point and then lysed for determination of luciferase activity as a read-out of the AHR activation. Luciferase can be measured with a commercial kit such as the Promega Luciferase kit or any kit or reagents that provide the luciferin substrate for measuring luciferase activity. The level of luciferase with only activating ligand (e.g. such as TCDD, kynurenine, ITE (2-(1H-indole-3-ylcarbonyl)-4-thiazolecarboxylic methyl ester), VAF347, BNF (beta-naphthoflavone), ICZ (6-formylindolo(3,2-b) carbazole or other AHR ligands) added is the maximum signal while the luciferase with no ligand is the minimum signal. EC50s can be determined as the concentration which activates half of the maximum luciferase activity.
# T1 sequence (P30561 10-805 limits assumed): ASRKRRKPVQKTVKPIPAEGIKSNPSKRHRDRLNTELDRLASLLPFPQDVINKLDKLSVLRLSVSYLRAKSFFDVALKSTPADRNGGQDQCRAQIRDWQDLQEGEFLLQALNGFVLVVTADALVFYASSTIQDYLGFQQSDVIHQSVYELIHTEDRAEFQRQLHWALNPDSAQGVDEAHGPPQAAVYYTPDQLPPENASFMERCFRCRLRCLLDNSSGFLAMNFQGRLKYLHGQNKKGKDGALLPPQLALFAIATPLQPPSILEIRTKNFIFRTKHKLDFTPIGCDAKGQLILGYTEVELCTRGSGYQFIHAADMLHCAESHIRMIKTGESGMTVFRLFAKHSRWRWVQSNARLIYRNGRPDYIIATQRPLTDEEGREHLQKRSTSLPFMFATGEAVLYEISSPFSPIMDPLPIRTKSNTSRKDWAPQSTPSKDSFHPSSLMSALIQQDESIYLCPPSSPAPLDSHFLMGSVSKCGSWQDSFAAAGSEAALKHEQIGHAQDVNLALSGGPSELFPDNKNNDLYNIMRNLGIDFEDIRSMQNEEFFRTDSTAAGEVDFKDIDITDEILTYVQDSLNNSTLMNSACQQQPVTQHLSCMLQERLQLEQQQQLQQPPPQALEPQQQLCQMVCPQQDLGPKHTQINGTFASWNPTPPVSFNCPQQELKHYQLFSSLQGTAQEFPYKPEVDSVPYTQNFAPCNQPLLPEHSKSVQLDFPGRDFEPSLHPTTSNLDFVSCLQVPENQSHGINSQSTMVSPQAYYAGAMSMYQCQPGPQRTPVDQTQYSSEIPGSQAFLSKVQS
# T1 sequence (P11499 whole entry partner): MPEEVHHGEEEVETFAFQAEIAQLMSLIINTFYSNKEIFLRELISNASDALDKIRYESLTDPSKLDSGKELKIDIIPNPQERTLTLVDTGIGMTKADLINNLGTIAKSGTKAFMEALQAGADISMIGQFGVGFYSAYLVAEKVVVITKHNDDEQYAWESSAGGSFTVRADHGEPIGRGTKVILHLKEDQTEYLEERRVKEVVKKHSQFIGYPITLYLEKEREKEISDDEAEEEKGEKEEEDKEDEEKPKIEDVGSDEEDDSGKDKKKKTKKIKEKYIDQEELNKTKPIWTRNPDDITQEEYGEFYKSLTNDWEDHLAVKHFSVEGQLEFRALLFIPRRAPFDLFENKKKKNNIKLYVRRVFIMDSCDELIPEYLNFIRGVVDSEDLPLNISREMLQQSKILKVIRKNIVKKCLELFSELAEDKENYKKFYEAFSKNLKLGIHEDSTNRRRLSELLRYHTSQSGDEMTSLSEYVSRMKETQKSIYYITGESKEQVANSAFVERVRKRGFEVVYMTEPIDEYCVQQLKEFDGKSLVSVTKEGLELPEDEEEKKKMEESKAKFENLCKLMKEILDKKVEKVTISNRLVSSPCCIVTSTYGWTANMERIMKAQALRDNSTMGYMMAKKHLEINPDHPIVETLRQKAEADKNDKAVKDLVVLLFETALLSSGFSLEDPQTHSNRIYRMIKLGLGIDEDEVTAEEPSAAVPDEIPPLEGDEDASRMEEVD
# T1 sequence (O08915 whole entry partner): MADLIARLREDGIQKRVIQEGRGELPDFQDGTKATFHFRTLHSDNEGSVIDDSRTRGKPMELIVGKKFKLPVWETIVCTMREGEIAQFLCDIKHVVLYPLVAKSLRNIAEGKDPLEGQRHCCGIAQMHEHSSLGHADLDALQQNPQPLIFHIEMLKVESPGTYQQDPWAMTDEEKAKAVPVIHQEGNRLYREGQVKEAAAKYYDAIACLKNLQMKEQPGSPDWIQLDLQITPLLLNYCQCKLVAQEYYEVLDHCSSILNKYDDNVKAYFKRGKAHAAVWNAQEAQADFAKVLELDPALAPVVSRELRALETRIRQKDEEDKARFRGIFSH
row,SMILES,EC50
1,N#Cc1nc(C(=O)c2c[nH]c3ccccc23)sc1N [Compound I-50],< 0.01 µM
2,Nc1sc(C(=O)c2c[nH]c3ccccc23)nc1C(F)(F)F [Compound I-51],< 0.01 µM
3,COC(=O)c1nc(C(=O)c2c[nH]c3ccccc23)sc1Br [Compound I-53],0.01 to 0.1 µM
4,COC(=O)c1nc(C(=O)c2c[nH]c3ccccc23)sc1Cl [Compound I-55],0.01 to 0.1 µM
5,COC(=O)c1nc(C(=O)c2c[nH]c3ccccc23)sc1N [Compound I-56],< 0.01 µM
6,CCc1csc(C(=O)c2c[nH]c3ccccc23)n1 [Compound I-57],< 0.01 µM
7,COC(=O)c1ccc2c(C(=O)c3nc(C(C)C)cs3)c[nH]c2c1 [Compound I-58],0.01 to 0.1 µM
8,CC(C)c1csc(C(=O)c2c[nH]c3cc(C(=O)O)ccc23)n1 [Compound I-59],0.1 to 1 µM
9,COc1ccc2c(C(=O)c3nc(C(C)(C)C)cs3)c[nH]c2c1 [Compound I-60],< 0.01 µM

# Same assay, conditions: Hepa1.6 cells, agonist mode, Table 3, read-out: DRE-Luc Hepa1.6 - Agonist: Average EC50
row,SMILES,EC50
1,O=C(c1nc([C@H]2CC[C@H](O)CC2)cs1)c1c[nH]c2ccccc12 [Compound I-52],> 1 µM
2,COC(=O)c1nc(C(=O)c2c[nH]c3ccccc23)sc1C(F)(F)F [Compound I-54],> 1 µM

# Target: T2, AHR (Homo sapiens, UniProt P35869)
# T2 construct: endogenous in cells; host or cells: HepG2 (human), DRE-luciferase reporter stably or transiently transfected
# T2 sequence (P35869 11-848): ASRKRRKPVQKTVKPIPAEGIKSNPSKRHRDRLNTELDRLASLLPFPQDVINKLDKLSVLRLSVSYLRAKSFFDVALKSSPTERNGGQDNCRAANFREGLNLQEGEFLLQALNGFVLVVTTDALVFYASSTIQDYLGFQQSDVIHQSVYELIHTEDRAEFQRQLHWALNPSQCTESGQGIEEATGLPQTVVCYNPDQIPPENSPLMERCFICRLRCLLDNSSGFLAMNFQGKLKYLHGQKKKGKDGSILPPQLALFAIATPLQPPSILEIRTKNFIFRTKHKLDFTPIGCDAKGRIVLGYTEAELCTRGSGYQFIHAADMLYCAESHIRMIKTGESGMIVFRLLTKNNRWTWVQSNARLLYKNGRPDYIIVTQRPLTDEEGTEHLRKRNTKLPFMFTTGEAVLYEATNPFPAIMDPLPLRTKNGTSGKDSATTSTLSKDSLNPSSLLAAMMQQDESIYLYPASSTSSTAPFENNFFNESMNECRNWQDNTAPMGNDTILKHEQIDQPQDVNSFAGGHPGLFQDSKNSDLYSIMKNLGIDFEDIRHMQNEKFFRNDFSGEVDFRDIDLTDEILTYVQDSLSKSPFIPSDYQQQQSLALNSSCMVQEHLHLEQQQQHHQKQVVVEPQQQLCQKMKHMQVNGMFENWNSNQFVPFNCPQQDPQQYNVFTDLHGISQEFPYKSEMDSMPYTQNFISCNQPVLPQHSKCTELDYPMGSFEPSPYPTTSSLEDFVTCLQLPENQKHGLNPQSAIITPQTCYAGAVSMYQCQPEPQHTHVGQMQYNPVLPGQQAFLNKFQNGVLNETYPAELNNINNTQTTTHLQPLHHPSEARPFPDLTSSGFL
# Assay: DRE-Luciferase Reporter Assay, HepG2, agonist
# Type: cell-based
# Settings: HepG2 cells, agonist mode, Table 2, read-out: DRE-Luc HepG2 - Agonist: Average EC50
# Protocol: as §1, §2, §3
row,SMILES,EC50
1,Cc1sc(C(=O)c2c[nH]c3ccccc23)nc1C(=O)OCCOCC[N+](C)(C)C [Compound I-1],< 10 nM
2,"CN(C)C(=O)c1csc(C(=O)c2c[nH]c3ccccc23)n1 [Compound I-3, 2-(1H-Indole-3-carbonyl)-N,N-dimethyl-thiazole-4-carboxamide]",10 to 100 nM
3,COC(=O)c1csc(C(=O)c2c[nH]c3cc(OC)ccc23)n1 [Compound I-6],100 to 1000 nM
4,CN(CCOCCO)C(=O)c1csc(C(=O)c2c[nH]c3ccccc23)n1 [Compound I-12],100 to 1000 nM
5,O=C(NCCOCCO)c1csc(C(=O)c2c[nH]c3ccccc23)n1 [Compound I-13],100 to 1000 nM
6,COC(=O)c1nc(C(=O)c2c[nH]c3ccccc23)sc1C [Compound I-14],100 to 1000 nM
7,COC(=O)c1nc(C(=O)c2c[nH]c3cccc(C)c23)sc1C [Compound I-15],100 to 1000 nM
8,Cc1sc(C(=O)c2c[nH]c3ccccc23)nc1C(=O)NCCOCC[N+](C)(C)C [Compound I-16],100 to 1000 nM
9,Cc1sc(C(=O)c2c[nH]c3ccccc23)nc1C(=O)NCCOCCN(C)C [Compound I-17],100 to 1000 nM
10,CN(CCO)CCOC(=O)c1csc(C(=O)c2c[nH]c3ccccc23)n1 [Compound I-21],> 1000 nM
11,C[N+](C)(C)CCOCCNC(=O)c1csc(C(=O)c2c[nH]c3ccccc23)n1 [Compound I-22],> 1000 nM
12,C[N+](C)(C)CCOCCOC(=O)c1csc(C(=O)c2c[nH]c3ccccc23)n1 [Compound I-24],> 1000 nM
13,CN1CCN(C(=O)c2csc(C(=O)c3c[nH]c4ccccc34)n2)CC1 [Compound I-25],> 1000 nM
14,O=C(O)CCOCCNC(=O)c1csc(C(=O)c2c[nH]c3ccccc23)n1 [Compound I-26],> 1000 nM
15,COC(=O)c1csc(C(=O)n2cnc3ccccc32)n1 [Compound I-27],> 1000 nM
16,C[N+]1(C)CCN(C(=O)c2csc(C(=O)c3c[nH]c4ccccc34)n2)CC1 [Compound I-28],> 1000 nM
17,"Cc1sc(C(=O)c2c[nH]c3ccccc23)nc1C(=O)NCCOCCO [Compound I-29, N-[2-(2-Hydroxyethoxy)ethyl]-2-(1H-indole-3-carbonyl)-5-methyl-thiazole-4-carboxamide]",> 1000 nM
18,COC(=O)c1cn(C)c(C(=O)c2c[nH]c3ccccc23)n1 [Compound I-30],> 1000 nM
19,COC(=O)c1nc(C(=O)c2c[nH]c3ccccc23)sc1C(C)C [Compound I-31],> 1000 nM
20,CC(C)c1sc(C(=O)c2c[nH]c3ccccc23)nc1C(=O)O [Compound I-32],> 1000 nM
21,COC(=O)c1cnc(C(=O)c2c[nH]c3ccccc23)n1C [Compound I-33],> 1000 nM
22,"CN(C)CCOCCNC(=O)c1csc(C(=O)c2c[nH]c3ccccc23)n1 [Compound I-34, N-[2-[2-(Dimethylamino)ethoxy]ethyl]-2-(1H-indole-3-carbonyl)thiazole-4-carboxamide]",> 1000 nM
23,"O=C(c1nc(C(=O)N2CCCCC2)cs1)c1c[nH]c2ccccc12 [Compound I-35, 1H-indol-3-yl-[4-(piperidine-1-carbonyl)thiazol-2-yl]methanone]",> 1000 nM
24,COC(=O)c1c[nH]c(C(=O)c2c[nH]c3ccccc23)n1 [Compound I-36],> 1000 nM

row,SMILES,EC50
1,O=C(O)COCCNC(=O)c1csc(C(=O)c2c[nH]c3ccccc23)n1 [Compound I-37],> 1000 nM
2,O=C(O)c1coc(C(=O)c2c[nH]c3ccccc23)n1 [Compound I-38],> 1000 nM
3,Cn1c(C(=O)O)cnc1C(=O)c1c[nH]c2ccccc12 [Compound I-39],> 1000 nM
4,Cc1sc(C(=O)c2c[nH]c3ccccc23)nc1C(=O)O [Compound I-40],> 1000 nM
5,"CC(C)(C)OC(=O)NCCOCCNC(=O)c1csc(C(=O)c2c[nH]c3ccccc23)n1 [Compound I-41, tert-Butyl N-[2-[2-[[2-(1H-indole-3-carbonyl)thiazole-4-carbonyl]amino]ethoxy]ethyl]carbamate]",> 1000 nM
6,NCCOCCNC(=O)c1csc(C(=O)c2c[nH]c3ccccc23)n1 [Compound I-42],> 1000 nM
7,Cn1cc(C(=O)O)nc1C(=O)c1c[nH]c2ccccc12 [Compound I-43],> 1000 nM
8,COC(=O)c1csc(C(=O)c2c[nH]c3ccc(O)cc23)n1 [Compound I-44],> 1000 nM
9,COC(=O)c1csc(C(=O)c2c[nH]c3cc(O)ccc23)n1 [Compound I-45],> 1000 nM
10,COC(=O)c1nc(C(=O)c2c[nH]c3ccccc23)sc1C [Compound P-1],< 10 nM
11,NC(=O)c1csc(C(=O)c2c[nH]c3ccccc23)n1 [Compound P-5],10 to 100 nM
12,O=C(OCCOCCO)c1csc(C(=O)c2c[nH]c3ccccc23)n1 [Compound P-6],100 to 1000 nM
13,COC(=O)c1csc(C(=O)c2c[nH]c3ccc(OC)cc23)n1 [Compound P-7],100 to 1000 nM
14,COC(=O)c1csc(/C(=N/O)c2c[nH]c3ccccc23)n1 [Compound P-8],100 to 1000 nM
15,O=C(OCCO)c1csc(C(=O)c2c[nH]c3ccccc23)n1 [Compound P-9],100 to 1000 nM
16,CO/N=C(\c1nc(C(=O)OC)cs1)c1c[nH]c2ccccc12 [Compound P-10],100 to 1000 nM
17,CO/N=C(/c1nc(C(=O)OC)cs1)c1c[nH]c2ccccc12 [Compound P-11],> 1000 nM
18,COC(=O)c1csc(/C(=N\O)c2c[nH]c3ccccc23)n1 [Compound P-13],> 1000 nM
19,COC(=O)c1csc([C@H](O)c2c[nH]c3ccccc23)n1 [Compound P-14],> 1000 nM
20,COC(=O)c1csc([C@@H](O)c2c[nH]c3ccccc23)n1 [Compound P-15],> 1000 nM
21,COC(=O)c1csc(C(=O)c2cn(C)c3ccccc23)n1 [Compound P-16],> 1000 nM
22,COC(=O)c1csc(C(=O)c2n[nH]c3ccccc23)n1 [Compound P-17],> 1000 nM
23,COC(=O)c1csc(C(=O)c2c[nH]c3cccnc23)n1 [Compound P-18],> 1000 nM
24,COC(=O)c1coc(C(=O)c2c[nH]c3ccccc23)n1 [Compound P-19],> 1000 nM

# Same assay, conditions: HepG2 cells, agonist mode, Table 3, read-out: DRE-Luc HepG2 - Agonist: Average EC50
row,SMILES,EC50
1,N#Cc1nc(C(=O)c2c[nH]c3ccccc23)sc1N [Compound I-50],< 10 nM
2,Nc1sc(C(=O)c2c[nH]c3ccccc23)nc1C(F)(F)F [Compound I-51],< 10 nM
3,O=C(c1nc([C@H]2CC[C@H](O)CC2)cs1)c1c[nH]c2ccccc12 [Compound I-52],10 to 100 nM
4,COC(=O)c1nc(C(=O)c2c[nH]c3ccccc23)sc1Br [Compound I-53],< 10 nM
5,COC(=O)c1nc(C(=O)c2c[nH]c3ccccc23)sc1C(F)(F)F [Compound I-54],< 10 nM
6,COC(=O)c1nc(C(=O)c2c[nH]c3ccccc23)sc1Cl [Compound I-55],< 10 nM
7,COC(=O)c1nc(C(=O)c2c[nH]c3ccccc23)sc1N [Compound I-56],< 10 nM
8,CCc1csc(C(=O)c2c[nH]c3ccccc23)n1 [Compound I-57],< 10 nM
9,COC(=O)c1ccc2c(C(=O)c3nc(C(C)C)cs3)c[nH]c2c1 [Compound I-58],10 to 100 nM
10,CC(C)c1csc(C(=O)c2c[nH]c3cc(C(=O)O)ccc23)n1 [Compound I-59],100 to 1000 nM
11,COc1ccc2c(C(=O)c3nc(C(C)(C)C)cs3)c[nH]c2c1 [Compound I-60],< 10 nM
